Counter-ions that a name gives are not always drawn.
Tested on: mice
Experiment: SmartCube in vivo neuropharmacological behavioral assay
Details: for minimal effective dose: Mus musculus, ip, 0.25 h, dose having 50% or more total activity in SmartCube, i.p., read-out: MED (minimal effective dose); for AD: antidepressant (percent probability) / AG: analgesic (percent probability) / AP: antipsychotic (percent probability) / AX: anxiolytic (percent probability) / CE: cognitive enhancer (percent probability) / HA: hallucinogenic (percent probability) / MS: mood stabilizer (percent probability) / PS (percent probability) / SD: sedative hypnotic (percent probability) / SE: side effects (percent probability) / UN: uncharacterized CNS activity (percent probability) / XG: anxiogenic (percent probability): SmartCube, i.p. 15 min before test, result at the MED
Protocol: The compounds were evaluated for their CNS related properties (e.g., the treatment, prevention or diagnosis of CNS or CNS-related disorders and/or amelioration of symptoms) using neuropharmacological screening methods described in S. L. Roberts et al., Front. Neurosci. 2011, 5:103 (hereinafter referred to as “Roberts,” the contents of which are incorporated herein by reference in their entirety).
According to Roberts, intact systems are useful in detecting improvement in disease-relevant endpoints, because psychiatric diseases generally result from disorders of cell-cell communication or circuitry. The endpoints are typically behavioral in nature, often requiring human observation and interpretation. In order to test multiple compounds for behavioral effects relevant to neurological and psychiatric diseases and disorders, PsychoGenics, Inc. (Paramus, N.J. “PGI”) developed SmartCube®, an automated system in which behaviors of compound-treated mice are captured by digital video and analyzed with computer algorithms to facilitate testing of multiple compounds for behavioral effects relevant to psychiatric disease. (D. Brunner et al., Drug Discov. Today 2002, 7:S107-S112; Alexandrov et al., Eur. J. Pharmacol. 2015, 753:127-134; the contents of each of which are incorporated herein by reference in their entirety).
The SmartCube® system is described in Example 2.2 of U.S. Pat. No. 9,758,529 and Example 289 of WIPO Publication No. WO2018/023070, the contents of each of which are incorporated herein by reference in their entirety.
According to the present disclosure, compounds identified may be evaluated using the SmartCube® system. The results of such analysis correlate certain patterns or combinations of behaviors to CNS effects along a percent probability scale of 0-100 where zero (0) reflects the limit of quantitation (LOQ).
The compounds of the present disclosure were evaluated for their CNS related properties (e.g., the treatment, prevention or diagnosis of CNS or CNS-related disorders and/or amelioration of symptoms) using neuropharmacological screening methods described in S. L. Roberts et al., Front. Neurosci. 2011, 5:103 (hereinafter referred to as “Roberts,” the contents of which are incorporated herein by reference in their entirety).
The SmartCube® system described herein was utilized to compare the behavioral signature of a test compound to a database of behavioral signatures obtained using a large set of diverse reference compounds (including but not limited to antipsychotics, anxiolytics, antidepressants and bipolar disorder medicine), thereby predicting the neuropharmacological effects of a test compound by similarity to major classes of compounds. It produces an activity signature indicating the probability that the activity of the test compound at the administered dose matches a given class of neuropharmacological agents. The test compound is simultaneously compared against multiple classes of agents; thus, a separate probability is generated for each behavioral effect measured (such as but not limited to anxiolytic activity and analgesic activity).
The compounds of the present disclosure were dissolved in a mixture of Pharmasolve™ (N-methyl-2-pyrrolidone (NMP)) and were injected i.p. 15 min. before the behavioral test. For each compound, injections were administered at different dose levels (e.g., 0.3, 1, 3, 10 and 30 mg per kg (mpk)). A compound's minimal effective dose (MED; see Table 3) is a measure of the compound's potency. The MED was defined as the dose (in mpk) having 50% or more total activity in SmartCube®. For each behavioral effect measured, results at the MED are presented. CNS activities of the compounds were recorded (see Table 2). In Table 1, a key to the percent probabilities (probability ×100) for each behavioral effect (“X”) are defined provided, where LOQ is the limit of quantification.

| SMILES | minimal effective dose | AD: antidepressant (percent probability) | AG: analgesic (percent probability) | AP: antipsychotic (percent probability) | AX: anxiolytic (percent probability) | CE: cognitive enhancer (percent probability) | HA: hallucinogenic (percent probability) | MS: mood stabilizer (percent probability) | PS (percent probability) | SD: sedative hypnotic (percent probability) | SE: side effects (percent probability) | UN: uncharacterized CNS activity (percent probability) | XG: anxiogenic (percent probability) |
| --- | --- | --- | --- | --- | --- | --- | --- | --- | --- | --- | --- | --- | --- |
| CC1CC2NC(C1)c1ccccc12 (stereo not drawn) [Compound 29, 10-Methyl-12-azatricyclo[6.3.1.0^2,7]dodeca-2,4,6-triene hydrochloride] | 1 to 10 mg/kg | ++ (5% ≤ X < 25%) | ++ (5% ≤ X < 25%) | + (LOQ ≤ X < 5%) | +++ (25% ≤ X < 50%) | + (LOQ ≤ X < 5%) | + (LOQ ≤ X < 5%) | + (LOQ ≤ X < 5%) | + (LOQ ≤ X < 5%) | + (LOQ ≤ X < 5%) | + (LOQ ≤ X < 5%) | + (LOQ ≤ X < 5%) | + (LOQ ≤ X < 5%) |
| COCC(C)N1C2CCCC1c1ccccc12 (stereo not drawn) [Compound 18, 12-(1-Methoxypropan-2-yl)-12-azatricyclo[6.3.1.0^2,7]dodeca-2,4,6-triene] | 10 to 30 mg/kg | ++++ (50% ≤ X < 100%) | + (LOQ ≤ X < 5%) | + (LOQ ≤ X < 5%) | ++ (5% ≤ X < 25%) | + (LOQ ≤ X < 5%) | + (LOQ ≤ X < 5%) | + (LOQ ≤ X < 5%) | + (LOQ ≤ X < 5%) | + (LOQ ≤ X < 5%) | + (LOQ ≤ X < 5%) | + (LOQ ≤ X < 5%) | + (LOQ ≤ X < 5%) |
| CC(CF)N1C2CCCC1c1ccccc12 (stereo not drawn) [Compound 19, 12-(1-Fluoropropan-2-yl)-12-azatricyclo[6.3.1.0^2,7]dodeca-2,4,6-triene hydrochloride] | 10 to 30 mg/kg | ++ (5% ≤ X < 25%) | + (LOQ ≤ X < 5%) | + (LOQ ≤ X < 5%) | ++++ (50% ≤ X < 100%) | + (LOQ ≤ X < 5%) | + (LOQ ≤ X < 5%) | + (LOQ ≤ X < 5%) | + (LOQ ≤ X < 5%) | + (LOQ ≤ X < 5%) | + (LOQ ≤ X < 5%) | + (LOQ ≤ X < 5%) | + (LOQ ≤ X < 5%) |
| CC(C)N1C2CCC(O)C1c1ccccc12 (stereo not drawn) [Compound 27, 12-(propan-2-yl)-12-azatricyclo[6.3.1.0^2,7]dodeca-2,4,6-trien-9-ol hydrochloride] | 10 to 30 mg/kg | +++ (25% ≤ X < 50%) | ++ (5% ≤ X < 25%) | + (LOQ ≤ X < 5%) | ++ (5% ≤ X < 25%) | + (LOQ ≤ X < 5%) | ++ (5% ≤ X < 25%) | + (LOQ ≤ X < 5%) | ++ (5% ≤ X < 25%) | + (LOQ ≤ X < 5%) | + (LOQ ≤ X < 5%) | + (LOQ ≤ X < 5%) | + (LOQ ≤ X < 5%) |
| CC(C)N1C2CCCC1c1ccccc12 [Compound 2, 12-(Propan-2-yl)-12-azatricyclo[6.3.1.0^2,7]dodeca-2,4,6-triene] | 1 to 10 mg/kg | ++ (5% ≤ X < 25%) | ++ (5% ≤ X < 25%) | + (LOQ ≤ X < 5%) | + (LOQ ≤ X < 5%) | + (LOQ ≤ X < 5%) | + (LOQ ≤ X < 5%) | + (LOQ ≤ X < 5%) | + (LOQ ≤ X < 5%) | + (LOQ ≤ X < 5%) | + (LOQ ≤ X < 5%) | +++ (25% ≤ X < 50%) | + (LOQ ≤ X < 5%) |
| CC(C)CN1C2CCCC1c1ccccc12 [Compound 8, 12-(2-Methylpropyl)-12-azatricyclo[6.3.1.0^2,7]dodeca-2,4,6-triene] | 10 to 30 mg/kg | ++++ (50% ≤ X < 100%) | + (LOQ ≤ X < 5%) | + (LOQ ≤ X < 5%) | ++ (5% ≤ X < 25%) | + (LOQ ≤ X < 5%) | + (LOQ ≤ X < 5%) | + (LOQ ≤ X < 5%) | ++ (5% ≤ X < 25%) | + (LOQ ≤ X < 5%) | + (LOQ ≤ X < 5%) | + (LOQ ≤ X < 5%) | + (LOQ ≤ X < 5%) |
| c1ccc2c(c1)C1CCCC2N1C1CC1 [Compound 15, 12-Cyclopropyl-12-azatricyclo[6.3.1.0^20.7]dodeca-2,4,6-triene hydrochloride] | 10 to 30 mg/kg | ++++ (50% ≤ X < 100%) | ++ (5% ≤ X < 25%) | + (LOQ ≤ X < 5%) | ++ (5% ≤ X < 25%) | + (LOQ ≤ X < 5%) | + (LOQ ≤ X < 5%) | + (LOQ ≤ X < 5%) | ++ (5% ≤ X < 25%) | + (LOQ ≤ X < 5%) | + (LOQ ≤ X < 5%) | + (LOQ ≤ X < 5%) | ++ (5% ≤ X < 25%) |
| CC1CC2c3ccccc3C(C1)N2C1CCC1 (stereo not drawn) [Compound 36, 12-Cyclobutyl-10-methyl-12-azatricyclo[6.3.1.0^2,7]dodeca-2,4,6-triene hydrochloride] | 1 to 10 mg/kg | ++++ (50% ≤ X < 100%) | + (LOQ ≤ X < 5%) | + (LOQ ≤ X < 5%) | + (LOQ ≤ X < 5%) | + (LOQ ≤ X < 5%) | ++ (5% ≤ X < 25%) | + (LOQ ≤ X < 5%) | + (LOQ ≤ X < 5%) | + (LOQ ≤ X < 5%) | + (LOQ ≤ X < 5%) | ++ (5% ≤ X < 25%) | + (LOQ ≤ X < 5%) |
| CN1C2CCCC1c1ccccc12 [Compound 3, 12-Methyl-12-azatricyclo[6.3.1.0^2,7]dodeca-2,4,6-triene hydrochloride] | 10 to 30 mg/kg | +++ (25% ≤ X < 50%) | ++ (5% ≤ X < 25%) | + (LOQ ≤ X < 5%) | ++ (5% ≤ X < 25%) | + (LOQ ≤ X < 5%) | + (LOQ ≤ X < 5%) | + (LOQ ≤ X < 5%) | + (LOQ ≤ X < 5%) | ++ (5% ≤ X < 25%) | ++ (5% ≤ X < 25%) | ++ (5% ≤ X < 25%) | + (LOQ ≤ X < 5%) |
